The values that follow come from patent US20150231198A1 (priority 2014, published 2015).

One data set deals with HH. The experiment in a line: cells. The data set is classed as cell-based.
In another data set the test system is SUP-T1 cells. The data set can be described thus: Flow cytometry apoptosis (Annexin V-FITC/PI), SUP-T1. The conditions noted are these: 48 hours. The data set is classed as cell-based. (In general: A flow cytometer gives signals particle by particle.)
Another data set deals with HD-MAR2. The data set can be described thus: cells. The following applies: 48 h, read-out: IC50 (concentration that inhibits viability by 50%). The data set is classed as cell-based.
For data set [1] the following is noted: after intravenous infusion; cited from earlier work.
For data set [2] the following is noted: water; cited from earlier work.
Data set [3] relates to Primary GFP+ cells from the Itk-Syk transgenic mouse model. The data set can be described thus: Apoptosis and synergy in primary GFP+ cells from Itk-Syk transgenic mouse. The data set is classed as cell-based. The following applies: 48 hours.
Another data set has as its system Sup-T1. The data set can be described thus: cells. The data set is classed as cell-based. The conditions noted are these: Homo sapiens, SUP-T1, 48 h, read-out: IC50 (concentration that inhibits viability by 50%).
The subject of another data set is Karpas 299 cell line. The data set can be described thus: Flow cytometry apoptosis (Annexin V-FITC/PI), Karpas 299. The data set is classed as cell-based.
The next data set relates to Jurkat. The experiment in a line: cells. The format is cell-based. The conditions noted are these: Homo sapiens, 48 h, read-out: IC50 (concentration that inhibits viability by 50%).
The test system of data set [4] is protein, primarily albumin. The conditions noted are these: cited from earlier work.
In another data set the test system is Karpas 299. The experiment in a line: cells. The data set is classed as cell-based. The conditions noted are these: Homo sapiens, KARPAS-299, 48 h, read-out: IC50 (concentration that inhibits viability by 50%).
For data set [5] the following is noted: in vivo; cited from earlier work.

Take `Cn1c(CCCC(=O)O)nc2cc(N(CCCl)CCCl)ccc21` [bendamustine]: the “growth inhibition (sensitivity of cell line)” value in the data set with HH (concentrations as high as 30 μM, 48 hours of exposure) is “resistant”. The “apoptosis induced, % cells” value with SUP-T1 cells (SUP-T1, bendamustine alone) is 50%. Besides, the IC50 in the data set on HD-MAR2 came out at 9330 nM; with Sup-T1 it was 8880 nM; in the data set with Jurkat, 17800 nM; with Karpas 299, 32000 nM. In addition, in data set [1], the “half-life (first phase of biphasic elimination)” value was 6 to 10 min. The terminal half-life entry in data set [1] was “approximately 30 minutes”. Also, the solubility entry in [2] is given as “water soluble”. For the same compound, the “apoptosis induced, % of the cells” value in [3] (bendamustine alone) is 72%. This compound also showed an apoptotic cells in the data set on Karpas 299 cell line (Karpas 299, bendamustine at 10 μM (IC50-60)) of 35%. Moreover, the “drug bound to protein” value in data set [4] was “More than 95%”. Besides, in [5], the “incidence of hair loss (alopecia)” value was “low incidence”.
For the compound `C/C=C1\NC(=O)[C@H]2CSSCC/C=C/[C@H](CC(=O)N[C@H](C(C)C)C(=O)N2)OC(=O)[C@H](C(C)C)NC1=O` [romidepsin, (1S,4S,7Z,10S,16E,21R)-7-ethyl idene-4,21-bis(1-methylethyl)-2-oxa-12,13-dithia-5,8,20,23-tetrazabicyclo[8.7.6]tricos-16-ene-3,6,9,19,22-pentone], the IC50 was determined as 1.68 nM with HH (Homo sapiens, 48 h, read-out: IC50 (concentration that inhibits viability by 50%)); 0.33 nM with HD-MAR2; 0.94 nM in the data set on Sup-T1; 0.46 nM in the data set on Jurkat; 0.56 nM in the data set on Karpas 299. For the same compound, the “apoptosis induced, % cells” value in the data set on SUP-T1 cells (SUP-T1, romidepsin alone) worked out at 31%. Further, in data set [3] (romidepsin alone), the “apoptosis induced, % of the cells” value is listed as 60%. In the data set on Karpas 299 cell line (Karpas 299, romidepsin alone at 1 nM), the “apoptosis induced, % of the cell population” value was “up to 40%”.
